From patent US10413583B2, “Synthetic substrates for enzymes that catalyze reactions of modified cysteines and related methods” (The University of Chicago, priority 2016, dated 2019)

Tests used:
APT1 = biological target: T1, APT1 (Homo sapiens, UniProt O75608); test: In vitro kinetic assays of RDP-1 and RDP-2 with APT1; type: biochemical; details: 1 μM probe, 200 nM enzyme, 20 min
T1 construct: His-tag; made in house; host or cells: E. coli ROSETTA DE3
Protocol: (§1) 100 μL of 400 nM of APT1 or APT2, or buffer without added enzymes, were added to buffer (20 mM HEPES, 150 mM NaCl, 0.1% Triton X-100, pH 7.4, degassed by bubbling N2 through the solution for 1 h) and prewarmed to 37° C. in a heating block for 5 min. The buffer solutions were then added using a multichannel pipet to a black-walled clear-bottom 96-well plate (Nunc, Roskilde, Denmark) containing 100 μL of 2 μM RDP-1 or RDP-2 in buffer (20 mM HEPES, 150 mM NaCl, 0.1% Triton X-100, pH 7.4, 0.15% DMSO) that had been pre-warmed in the plate reader at 37° C. for 5 min, resulting in a final concentration of 200 nM APT1 or APT2, 1 μM RDP-1 or RDP-2, and 0.1% DMSO. Fluorescent intensities λex1=430/24 nm, λem1=470/24 nm; λex2=480/20, λem2=575/40; gain=75; No. of flashes=8) were obtained as a ratio of em1/em2 in kinetic mode in 30 s intervals for 30 min.

APT2 = biological target: T2, APT2 (Homo sapiens, UniProt O95372); test: In vitro kinetic assays of RDP-1 and RDP-2 with APT2; type: biochemical; details: 1 μM probe, 200 nM enzyme, 20 min
T2 construct: His-tag; made in house; host or cells: E. coli ROSETTA DE3
T2 sequence (O95372 whole entry): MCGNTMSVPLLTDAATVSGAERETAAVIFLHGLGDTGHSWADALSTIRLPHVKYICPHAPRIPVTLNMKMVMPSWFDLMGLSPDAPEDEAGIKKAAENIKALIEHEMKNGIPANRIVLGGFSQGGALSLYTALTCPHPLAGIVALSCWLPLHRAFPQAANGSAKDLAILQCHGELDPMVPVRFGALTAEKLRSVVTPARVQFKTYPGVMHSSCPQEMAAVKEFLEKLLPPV
Protocol: as §1

[1] = Stability of RDP-1 and RDP-2 with biological reductant (GSH); type: physicochemical; details: 1 μM probe, 20 mM GSH, pH 7.4 buffer
Protocol: RDP-1 or RDP-2 were added to buffer (20 mM HEPES, 150 mM NaCl, 0.1% Triton X-100, pH 7.4, degassed by bubbling N2 through the solution for 1 h) prewarmed to 37° C. in a heating block for 5 min containing no reducing agent or GSH using a multichannel pipet to at least three wells of a black-walled clear-bottom 96-well plate (Nunc, Roskilde, Denmark; Final concentration: 1 μM RDP-1/RDP-2, 20 mM GSH, 20 mM HEPES, 150 mM NaCl, 0.1% Triton X-100, pH 7.4, 4.1% DMSO). Fluorescent intensities (λex1=430/25 nm, λeml=470/24 nm; λex2=480/20, λem2=575/40; gain=75; No. of flashes=10) were obtained as a ratio of em1/em2 in kinetic mode in 30 s intervals for 30 min.

[2] = system: catalytically inactive APTs (APT1(S119A), APT2(S122A)); test: In vitro kinetic assays of RDP-1 and RDP-2 with catalytically inactive enzymes; type: biochemical, human; details: 10 times more APT1(S119A) and APT2(S122A) enzyme
HEK293T cells = test: Fluorescence imaging of RDP-1 and RDP-2 with HEK293T cells; type: cell-based, human; details: 1 μM probe for 10 min
Protocol: HEK293T were plated with […] of DMEM (Gibco, Gaithersburg, Md., United States of America; High Glucose, Glutamax, 10% FBS) a four well chambered imaging dish (D35C4-20-1.5-N, Cellvis, Mountain View, Calif., United States of America) which were precoated with 4 μg Poly-D-lysine (30-70 kilodalton (KDa), Alfa Aesar, Haverhill, Mass., United States of America) for 2 h at room temperature or overnight at 4° C. and grown to ca. 80% confluence prior to imaging. 30 min before the addition of the RDP, the cell culture media was removed and cells were washed with 500 μL of serum-free DMEM (Gibco, Gaithersburg, Md., United States of America, High Glucose, Glutamax, no FBS). The media was then replaced with 500 μL of serum-free DMEM containing 100 nM Mitotracker Deep Red (Thermo Fisher Scientific, Waltham, Mass., United States of America; to assist in focusing and processing) and either 0.1% DMSO carrier as a control or Palm B, ML348, or ML349 in DMSO and incubated for 30 min at 37° C. and 5% CO2. The media was removed, the cells were washed with 500 μL of Live Cell Imaging Solution (Thermo Fisher Scientific, Waltham, Mass., United States of America), and 500 μL of 1 μM RDP-1 or RDP-2 along with the appropriate inhibitor or DMSO as control in Live Cell Imaging Solution was added to each well. After incubation for 10 min at 37° C. and 5% CO2, the cells were washed with 500 μL Live Cell Imaging Solution and 500 μL of Live Cell Imaging Solution containing DMSO or the appropriate inhibitor was added to the cells immediately before images were obtained on an inverted epi-fluorescence microscope (Olympus IX83; Olympus Corporation, Tokyo, Japan) attached with EMCCD camera (Photometrics EVOLVE™ Delta; Photometrics, Tucson, Ariz., United States of America) with 40× oil objective (N/A 1.3) for RDP-1 (excitation filter 1 430/24 nm, dichroic chroma 89007, emission filter 1 470/24 nm, exposure time 100 ms, EM gain 80, excitation filter 2 480/20 nm, dichroic chroma 49014, emission filter 2 575/40 nm, exposure time 70 ms, EM gain 50) or for RDP-2 (excitation filter 1 430/24 nm, dichroic chroma 89007, emission filter 1 470/24 nm, exposure time 70 ms, EM gain 50, excitation filter 2 480/20, dichroic chroma 49014, emission filter 2 575/40 nm, exposure time 50 ms, EM gain 30), brightfield (exposure time 50 ms, EM gain 30), and MitoTracker Deep Red: (excitation filter 640/30 nm, emission filter 705/72 nm, dichroic chroma 89016, exposure time 15 ms, EM gain 15). Analyses were performed in ImageJ as described below. Each experiment was repeated at least three separate times with identical results.
The probe channel data were expressed as a ratio of the blue channel divided by the green channel and normalized to the average fluorescence intensity of the control conditions. To eliminate errors from autofluorescence, the images were thresholded using the bluer channel images at the same minimum level that included the maximum number of cells in focus (as determined visually by the mitocondrial dye) while limiting the signal from areas where cells are not present. The average value of all nonzero pixels from the blue channel:green channel ratio image were calculated in ImageJ for three different measurements from each experiment. The percent deprotected was estimated by imaging RDP-1/2 in buffer (20 mM HEPES, 150 mM NaCl, 0.1% Triton X-100, pH 7.4, 0.1% DMSO) and for dye deprotected with 20 mM DTT in buffer (20 mM HEPES, 150 mM NaCl, 0.1% Triton X-100, pH 7.4, 0.1% DMSO) for 1 h at room temperature before aliquoted into individual tubes and stored at −80° C. A fresh aliquot of the solution was thawed for each experiment and diluted to 250 nM (RDP-1) or 500 nM (RDP-2) in buffer (20 mM HEPES, 150 mM NaCl, 0.1% Triton X-100, pH 7.4, 10 mM DTT) and allowed to equilibrate for 30 m before being imaged. […]

T1 sequence (O75608 whole entry): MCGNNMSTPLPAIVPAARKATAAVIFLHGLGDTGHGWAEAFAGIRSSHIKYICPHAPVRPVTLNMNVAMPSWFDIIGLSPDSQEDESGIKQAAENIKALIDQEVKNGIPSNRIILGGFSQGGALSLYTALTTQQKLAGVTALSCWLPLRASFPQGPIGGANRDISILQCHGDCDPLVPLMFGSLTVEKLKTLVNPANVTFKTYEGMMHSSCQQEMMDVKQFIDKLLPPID

Row | Compound | ratio change of ratiometric response (APT1) | ratio change of ratiometric response (APT2) | response to 20 mM glutathione [1] | response to catalytically inactive APTs [2] | depalmitoylation of probe (percent deprotected dye) (HEK293T cells)
1 | CCCCCCCC(=O)SC[C@@H](C(=O)NC)N(C)C(=O)/C(C#N)=C/c1c(C)c2cc3c4c(c2oc1=O)CCCN4CCC3 [RDP-1, (2E)-2-cyano-N-methyl-3-{6-methyl-4-oxo-3-oxa-13-azatetracyclo[7.7.1.0^2,7.0^13,17]heptadeca-1,5,7,9(17)-tetraen-5-yl}-N-[(1R)-1-(methylcarbamoyl)-2-(octanoylsulfanyl)ethyl]prop-2-enamide] | 0.7 to 34 | 0.7 to 34 | Neither RDP-1 nor RDP-2 responds | Neither RDP-1 nor RDP-2 responds | about 28%
2 | CCCCCCCC(=O)SC[C@@H](C(=O)N[C@@H](CCCCN)C(=O)OC)N(C)C(=O)/C(C#N)=C/c1c(C)c2cc3c4c(c2oc1=O)CCCN4CCC3 [RDP-2, (5S)-5-[(2R)-2-[(2E)-2-cyano-N-methyl-3-{6-methyl-4-oxo-3-oxa-13-azatetracyclo[7.7.1.0^2,7.0^13,17]heptadeca-1,5,7,9(17)-tetraen-5-yl}prop-2-enamido]-3-(octanoylsulfanyl)propanamido]-6-methoxy-6-oxohexan-1-aminium] | 1.9 to 16 | 1.9 to 16 | Neither RDP-1 nor RDP-2 responds | Neither RDP-1 nor RDP-2 responds | ~18%
